Measured values as given in the CheMixHub viscosity set.
“And” between values parts separate entries of the source, which are not always exact repeats. Equal values may be shown once. ± gives the uncertainty stated by the source.

Assay: xn = mol fraction of the nth substance listed

CCCCCCCCCCO + CCCCCCCO
viscosity [mPa·s], 101.8 kPa
Details	x2 = 0.1302	x2 = 0.3682	x2 = 0.5771	x2 = 0.7604	x2 = 0.9256
298.15 K	10.82 ± 0.4	9.364 ± 0.4	8.193 ± 0.39	7.155 ± 0.38	6.307 ± 0.37
308.15 K	7.586 ± 0.38	6.635 ± 0.36	5.836 ± 0.35	5.18 ± 0.35	4.596 ± 0.34
318.15 K	5.438 ± 0.35	4.801 ± 0.34	4.264 ± 0.34	3.812 ± 0.33	3.413 ± 0.33

CCOC(=O)OCC + CCCCCCCO
101 kPa
Details	viscosity [mPa·s]
293.15 K, x1 = 0.0488	5.846
293.15 K, x1 = 0.1045	4.795
293.15 K, x1 = 0.1829	3.725
293.15 K, x1 = 0.3015	2.669
293.15 K, x1 = 0.4047	2.08
293.15 K, x1 = 0.4807	1.748
293.15 K, x1 = 0.5714	1.453
293.15 K, x1 = 0.7024	1.153
293.15 K, x1 = 0.7985	0.995
293.15 K, x1 = 0.9023	0.873
293.15 K, x1 = 0.9522	0.831
303.15 K, x1 = 0.06097	4.061
303.15 K, x1 = 0.1159	3.411
303.15 K, x1 = 0.1861	2.773
303.15 K, x1 = 0.296	2.086
303.15 K, x1 = 0.4	1.655
303.15 K, x1 = 0.4747	1.417
303.15 K, x1 = 0.5946	1.149
303.15 K, x1 = 0.7056	0.955
303.15 K, x1 = 0.7928	0.851
303.15 K, x1 = 0.9047	0.755
303.15 K, x1 = 0.9521	0.727
313.15 K, x1 = 0.05658	3.024
313.15 K, x1 = 0.1024	2.586
313.15 K, x1 = 0.1931	2.03
313.15 K, x1 = 0.3063	1.576
313.15 K, x1 = 0.3932	1.348
313.15 K, x1 = 0.4994	1.121
313.15 K, x1 = 0.5837	0.974
313.15 K, x1 = 0.7095	0.811
313.15 K, x1 = 0.7894	0.736
313.15 K, x1 = 0.8956	0.661
313.15 K, x1 = 0.9569	0.634

CC(C)[C@@H]1CC[C@@H](C)C[C@H]1O + CCCCCCO
Details	viscosity [mPa·s]
298.15 K, 101.33 kPa, x1 = 0.5	22.95

CCCCCCCCCCO + CCCCCCO
viscosity [mPa·s], 101.8 kPa
Details	x2 = 0.1493	x2 = 0.3989	x2 = 0.6071	x2 = 0.7831	x2 = 0.9346
298.15 K	10.38 ± 0.43	8.464 ± 0.42	7.01 ± 0.41	5.822 ± 0.39	4.905 ± 0.39
308.15 K	7.307 ± 0.4	6.019 ± 0.37	5.068 ± 0.36	4.271 ± 0.36	3.643 ± 0.34
318.15 K	5.25 ± 0.36	4.393 ± 0.34	3.745 ± 0.34	3.191 ± 0.34	2.75 ± 0.33

CCOC(=O)OCC + CCCCCCO
101 kPa
Details	viscosity [mPa·s]
293.15 K, x1 = 0.0551	4.432
293.15 K, x1 = 0.1001	3.822
293.15 K, x1 = 0.2106	2.778
293.15 K, x1 = 0.3101	2.17
293.15 K, x1 = 0.4052	1.77
293.15 K, x1 = 0.5061	1.454
293.15 K, x1 = 0.6093	1.229
293.15 K, x1 = 0.7555	0.999
293.15 K, x1 = 0.7968	0.958
293.15 K, x1 = 0.8927	0.868
293.15 K, x1 = 0.9522	0.826
303.15 K, x1 = 0.05134	3.305
303.15 K, x1 = 0.1004	2.818
303.15 K, x1 = 0.2102	2.088
303.15 K, x1 = 0.3094	1.667
303.15 K, x1 = 0.4091	1.367
303.15 K, x1 = 0.5094	1.145
303.15 K, x1 = 0.6017	0.998
303.15 K, x1 = 0.7089	0.873
303.15 K, x1 = 0.8045	0.795
303.15 K, x1 = 0.9051	0.734
303.15 K, x1 = 0.9543	0.715
313.15 K, x1 = 0.06803	2.378
313.15 K, x1 = 0.222	1.602
313.15 K, x1 = 0.3216	1.303
313.15 K, x1 = 0.4055	1.125
313.15 K, x1 = 0.5084	0.954
313.15 K, x1 = 0.6037	0.839
313.15 K, x1 = 0.7059	0.748
313.15 K, x1 = 0.8097	0.682
313.15 K, x1 = 0.9065	0.642
313.15 K, x1 = 0.957	0.625

Cc1ccccc1C + CCCCCCO
viscosity, 101 kPa
Details	303.15 K	313.15 K	318.15 K	323.15 K
x2 = 0.0999	0.758 ± 0.008 mPa·s	0.663 ± 0.007 mPa·s	–	0.584 ± 0.006 mPa·s
x2 = 0.1	0.7581 ± 0.0099 mPa·s	0.6626 ± 0.0087 mPa·s	–	0.5835 ± 0.0077 mPa·s
x2 = 0.1999	0.852 ± 0.009 mPa·s	0.731 ± 0.007 mPa·s	–	0.637 ± 0.007 mPa·s
x2 = 0.2	0.852 ± 0.011 mPa·s	0.7312 ± 0.0095 mPa·s	0.6825 ± 0.0089 mPa·s	0.6374 ± 0.0084 mPa·s
x2 = 0.2999	0.978 ± 0.01 mPa·s	0.829 ± 0.008 mPa·s	–	0.713 ± 0.007 mPa·s
x2 = 0.3	0.9776 ± 0.013 mPa·s	0.8292 ± 0.011 mPa·s	–	0.7127 ± 0.0093 mPa·s
x2 = 0.4	1.142 ± 0.015 mPa·s	0.9571 ± 0.012 mPa·s	–	0.8098 ± 0.01 mPa·s
x2 = 0.4001	1.142 ± 0.012 mPa·s	0.957 ± 0.01 mPa·s	–	0.81 ± 0.008 mPa·s
x2 = 0.4997	1.361 ± 0.014 mPa·s	1.118 ± 0.011 mPa·s	–	0.933 ± 0.009 mPa·s
x2 = 0.5	1.361 ± 0.017 mPa·s	1.118 ± 0.014 mPa·s	–	0.933 ± 0.012 mPa·s
x2 = 0.6	1.651 ± 0.017 mPa·s and 1.651 ± 0.021 mPa·s	1.325 ± 0.013 mPa·s and 1.325 ± 0.017 mPa·s	–	1.087 ± 0.011 mPa·s and 1.087 ± 0.014 mPa·s
x2 = 0.7	2.034 ± 0.021 mPa·s and 2.034 ± 0.025 mPa·s	1.596 ± 0.016 mPa·s and 1.596 ± 0.02 mPa·s	–	1.284 ± 0.013 mPa·s and 1.284 ± 0.016 mPa·s
x2 = 0.8	2.532 ± 0.026 mPa·s and 2.532 ± 0.032 mPa·s	1.951 ± 0.02 mPa·s and 1.951 ± 0.024 mPa·s	–	1.541 ± 0.016 mPa·s and 1.541 ± 0.019 mPa·s
x2 = 0.8999	3.141 ± 0.032 mPa·s	2.391 ± 0.025 mPa·s	–	1.859 ± 0.019 mPa·s
x2 = 0.9	3.141 ± 0.039 mPa·s	2.391 ± 0.03 mPa·s	–	1.859 ± 0.023 mPa·s

CN1CCN(C)C1=O + CCCCCCn1cc[n+](C)c1.[Cl-]
100 kPa
Details	viscosity [mPa·s]
298.15 K, x2 = 0.1007	4.815 ± 0.21
303.15 K, x2 = 0.7981	978.5 ± 99

CCOC(=O)OCC + CCCCO
101 kPa
Details	viscosity [mPa·s]
293.15 K, x1 = 0.05477	2.407
293.15 K, x1 = 0.1013	2.092
293.15 K, x1 = 0.1989	1.633
293.15 K, x1 = 0.3128	1.321
293.15 K, x1 = 0.4106	1.145
293.15 K, x1 = 0.5009	1.023
293.15 K, x1 = 0.6135	0.901
293.15 K, x1 = 0.7033	0.838
293.15 K, x1 = 0.7967	0.806
293.15 K, x1 = 0.8803	0.807
293.15 K, x1 = 0.9292	0.802
303.15 K, x1 = 0.1264	1.549
303.15 K, x1 = 0.2963	1.093
303.15 K, x1 = 0.4038	0.957
303.15 K, x1 = 0.5148	0.867
303.15 K, x1 = 0.6085	0.808
303.15 K, x1 = 0.7037	0.759
303.15 K, x1 = 0.8066	0.717
303.15 K, x1 = 0.9043	0.701
313.15 K, x1 = 0.04531	1.564
313.15 K, x1 = 0.2917	0.947
313.15 K, x1 = 0.4025	0.819
313.15 K, x1 = 0.5009	0.743
313.15 K, x1 = 0.6129	0.679
313.15 K, x1 = 0.7014	0.645
313.15 K, x1 = 0.81	0.628
313.15 K, x1 = 0.9091	0.619
